Source: PMC11087482, “Discovering allatostatin type-C receptor specific agonists” (Nature Communications, 2024)
In brackets after ≈: the same amount, converted by molar mass. Where two headings read alike, the source gives them in different places. Marks after values point to notes of the source that are not given here. Positions of bridges follow the written chain, without caps; N, C: chain ends. Non-standard residues stand in square brackets, D forms with d. Residues, ends and D or L forms follow the SMILES beside them. pGlu = O=C1CC[C@@H](C(=O)O)N1

Assays:
[1] = parameters: method as in PMID 19540423, PMID 20936640; conditions: cited from earlier work
[2] = tested on: T. pityocampa larvae; assay: Toxicity tests, topical application on second instar larvae; type: in vivo; conditions: for Mean mortality: highest effect
Description: (§1) Pine processionary moth 2nd instar larvae of Thaumetopoea pityocampa for toxicity tests, adult, and 1st instar larvae of predator Calosoma sycophanta, 2nd instar larvae of potato beetle Leptinotarsa decemlineata were used for side effect assays.
T. pityocampa larvae were collected from red pine trees, Pinus brutia, in Nallıhan district of Ankara, Türkiye, in 2021. Larvae were cultured in 60 (±10) % humidity, 27 (±2) °C, and 16:8 light: dark photoperiod and were fed with red pine needles.
Stock solutions of the molecules were dissolved in DMSO, AST-C peptide was dissolved in PBS supplemented with 0.1% BSA pH 7.4. Dilutions were prepared in PBS supplemented with 0.1% BSA pH 7.4 in 50, 100, 250, 500, 750, and 1000 ppm (mg/L) concentrations and later placed in an ultrasonic bath (Sonorex, Bandelin) for ~10 min at 37 °C until all precipitates had vanished. Toxicity tests were conducted 1 day after larvae collection. 5 µL of doses were applied on the dorsal surface of the head-prothorax junction topically. […] Two negative control groups were prepared as PBS-applied and no application. Following the procedures, larvae were fed with 15 g P. brutia needles. Experiments were carried out on 10 larvae for each dosage, with three repeats.
(§2) Insect deaths were evaluated on the 3rd, 7th, and 14th days in toxicity and side effect experiments. The ones that were not feeding or not responding by a movement to stimulation with a soft-tipped brush were accepted as dead. Percentage mortality values generated on the 14th day were corrected using Abbott’s formula[84]. Statistical analyses were executed with IBM SPSS Statistics (v26.0) and R Studio (2022.02.0), and two-way ANOVA and Tukey test were performed to detect the data’s statistical significance. Lethal concentration values of LC50–90 (dose that produces 50-90% mortality in the population) with 95% confidence intervals (CI) and slopes were obtained using PoloPlus software (LeOra Software, USA) for mortality values assessed on the 14th day for T. pityocampa and the 3rd day for L. decemlineata. The LC50–90 values were considered to be similar if their 95% CIs overlapped (P > 0.05)[85]. Analysis between-subject effects on T. pityocampa larva length; one-way ANOVA tests assessing the impacts of molecule treatment on T. pityocampa larvae on larva length; and analysis of between-subjects effects on T. pityocampa head capsule width, alongside one-way ANOVA tests regarding the effects of molecule treatment on T. pityocampa larvae to head capsule width are detailed in the Source Data File (Source Data Supplementary Data Tables 1–4). Source data is available as Source Data File.

[3] = tested on: AlstR-C; assay: GloSensor cAMP assay after forskolin stimulation; type: cell-based, Thaumetopoea pityocampa; conditions: after 10 µM forskolin
Description: The ability of the hit compounds to activate the Gαi pathway was evaluated using a commercial cAMP assay (GloSensor, Promega). Prior to ligand treatment, cells were stimulated with 10 µM forskolin to elevate intracellular cAMP levels, and the ability of each ligand and control to downregulate cAMP was evaluated after 1 h. […] As an additional control, the ability of the hit compounds to activate a different receptor (5-HTR4) was also assessed using an AP-TGFα assay (Fig. 4k).
HEK293 cells were seeded 30,000 cells per well in DMEM 10% FBS without P/S to Greiner 655094 96-well plates 1 day before the transfection. Following overnight incubation at 37 °C, the cells were cotransfected with plasmids of the desired receptor along with GloSensor^TM cAMP plasmid using Lipofectamine™ 3000 Transfection Reagent and incubated 24 h at 37 °C 5% CO2 incubator. […] The baseline development was measured on a Thermo Scientific Fluoroskan Ascent FL Microplate Fluorometer and Luminometer plate reader following the cell stimulation with 10 μL 10 μM forskolin, approximately 1 h. […] Luminescence was measured at 1 read per well every 2 min, scaling factor was 10. Data were analyzed by calculating the area under the curve (AUC) over the ~2-h measurement period. Statistical significance was measured with ANOVA, and multiple comparisons were done with Dunnett’s Test. […]

[4] = tested on: T. pityocampa larvae; assay: Larval body allometry (body length, head capsule width) on day 14 of treatment; type: in vivo, Thaumetopoea pityocampa; conditions: for head capsule width / total body length: 14th day of treatment; for Larva Length, Mean Difference (I-J) versus Control / head capsule width, Mean Difference (I-J) versus Control: day 14, Tukey HSD, n = 20
Description: In addition, the ability of the identified hit compounds to alter larval body allometry was tested through measuring total body lengths and head capsule widths on the 14th day of treatment (Fig. 7).
as §2

[5] = tested on: T. pityocampa AlstR-C; assay: TGF-α shedding assay on HEK293 cells overexpressing the receptor; type: cell-based, Thaumetopoea pityocampa; conditions: Gαq/i1, read-out: EC50 (AP-TGFα release)
Description: HEK293 cells were maintained in DMEM (PAN Biotech) supplemented with 10% FBS (Gibco) and 1% Penicillin-Streptomycin (Gibco) at 37 °C in a 5% CO2 incubator. Cells were seeded in 6-well plates before transfection, and Lipofectamine™ 3000 Transfection Reagent (Thermo Fisher Scientific) was used for transfection in compliance with the manufacturer’s instructions.
HEK293 cells were seeded in DMEM 10% FBS without P/S to 6-well plates 1 day before the transfection. Following overnight incubation at 37 °C, the cells were cotransfected with plasmids of the desired receptor (100 ng)[44],[48] or pcDNA3.1, AP-TGFα (250 ng), and Gαq/i1 (10 ng) using Lipofectamine™ 3000 Transfection Reagent and incubated 24 h at 37 °C 5% CO2 incubator. Plasmids used for the TGF-α shedding assay were kindly gifted from Prof. Asuka Inoue[82],[83]. TGF-α Shedding Assay was used to measure the activity of studied compounds[83]. Cell harvesting was accomplished with TrypLE™ Express Enzyme (Gibco) since it was previously noted that trypsinization results in a higher background signal. After reseeding the cells in a 96-well plate, 10x concentrations of the compounds prepared in HBSS were applied for stimulation. For compounds not readily soluble in water, a concentration of 0.01 % (w/v) bovine serum albumin (BSA) in HBSS was used for dilution. Each treatment was performed with four replicas. Alkaline phosphatase activity was measured before and after 1-h and 2-h incubation at room temperature, and the absorbance of the plates at 405 nm was measured. AP-TGF-α release signals were fitted to a four-parameter sigmoidal dose-response curve, and EC50 values were calculated using GraphPad Prism 9.5.

[6] = tested on: Leptinotarsa decemlineata second-instar larvae; assay: Side effect tests on potato beetle larvae, topical application; type: in vivo; conditions: 1000 ppm topical, second-instar larvae, days 3, 7, 14
Description: as §1
(§3) L. decemlineata larvae were collected from a potato field in Kahramankazan district of Ankara province in 2022. The larvae were cultured in the laboratory under 60% (±10) humidity, 27(±2) °C temperature, and 16:8 light: dark photoperiod with potato plant leaves.
(§4) Effective molecules of toxicity tests were applied on adults, 1st instar larvae of predator C. sycophanta, and 2nd instar larvae of potato beetle L. decemlineata to evaluate side effects.
(§5) 5 µL of 1000 ppm dose were applied topically on the dorsal surface of the head-prothorax junction 2nd instar larvae of potato beetle. 30 larvae were used in assays, and larvae were placed on potato leaves inside the water-filled cups for feeding. Negative control groups were as previously described. Dimilin 25 WP (%25 diflubenzuron) was used as a positive control on L. decemlineata. Experiments were carried out with three repeats.
as §2

[7] = tested on: Calosoma sycophanta first-instar larvae and adults; assay: Side effect tests on predatory insect, topical application; type: in vivo; conditions: 1000 ppm topical, days 3, 7, 14
Description: as §1
C. sycophanta adults and T. pityocampa nests were collected from Korkuteli forests in Antalya 2022. T. pityocampa nests were stored at +4 °C to prevent pupae formation. 20 adult C. sycophanta were placed in clear plastic boxes (30 × 45 × 30 cm) with moist soil at the bottom. Adults were fed with T. pityocampa larvae regularly. After mating, C. sycophanta eggs were collected from the soil with a soft tip brush, and eggs were reserved in moist cotton until eggs cracked. Subsequently, C. sycophanta larvae were placed individually in clear, hard plastic cups (180 cm^3) containing moist soil and covered with glass. One T. pityocampa larva per day was added to each cup for feeding. Predator insects were cultured in 65 (±5) % humidity, 25 (±5) °C, and 16:8 light: dark photoperiod.
as §4
C. sycophanta larvae and adults were placed individually in clear, hard plastic cups (180 cc) containing moist soil. 5 µL of 1000 ppm dose was applied topically on the head-prothorax junction’s dorsal surface. 50 larvae and adults were used in the experiments. One T. pityocampa larva per day was added to each cup for feeding. Two negative controls were PBS-applied and no application groups.
as §2, with “Analysis between-subject effects on T. pityocampa larva length; one-way ANOVA tests assessing the impacts of molecule treatment on T. pityocampa larvae on larva length; and analysis of between-subjects effects on T. pityocampa head capsule width, alongside one-way ANOVA tests regarding the effects of molecule treatment on T. pityocampa larvae to head capsule width are detailed in the Source Data File (Source Data Supplementary Data Tables 1–4). Source data is available as Source Data File.” left out

[8] = Side effect tests on potato beetle larvae, topical application; type: in vivo; conditions: Leptinotarsa decemlineata, in vivo
Description: as §1, §3, §4, §5, §2

[9] = day 14 mortality, Probit analysis
[10] = Thaumetopoea pityocampa, topical, 336 h, read-out: LC50 (95% CI)
[11] = Thaumetopoea pityocampa, topical, 336 h

CC[C@H](C)[C@@H]1NC(=O)[C@@H]2CCCN2C(=O)[C@H](CC(N)=O)NC(=O)[C@H](Cc2ccccc2)NC(=O)[C@H](Cc2ccc(O)cc2)NC(=O)[C@@H](NC(=O)[C@H](CCC(N)=O)NC(=O)[C@H](CCCNC(=N)N)NC(=O)[C@H](Cc2ccccc2)NC(=O)[C@H](CCCNC(=N)N)NC(=O)[C@@H](NC(=O)[C@@H]2CCC(=O)N2)C(C)C)CSSC[C@@H](C(=O)N[C@@H](Cc2ccccc2)C(=O)O)NC(=O)[C@H](CO)NC1=O [AST-C, reference compound] ([pGlu]VRFRQCYFNPISCF-OH; disulfide 7-14; C-terminus assumed)
shelf life and degradation in the environment [1]: comparatively short shelf life and undergoes rapid degradation in the environment
Mean mortality ([2]; 14 days post-administration): 100%
LC50 ([2]; day 14 after the application, Probit analysis): 152 ppm
LC50 (95% CI) [2, 9]: 152.414 (101.993–209.528) mg/L
LC90 (95% CI) [2, 9]: 782.851 (512.785–1616.980) mg/L
ability to downregulate cAMP (RLU) [3]: most significant impact
head capsule width [4]: Statistically significant decreases
total body length [4]: Statistically significant decreases
Larva Length, Mean Difference (I-J) versus Control [4]: -9,070* mm
head capsule width, Mean Difference (I-J) versus Control [4]: -1,105* mm
EC50 [5]: 0.000623 µM

O=C1c2n[nH]c(-c3ccccc3O)c2C(c2cccc(Oc3ccccc3)c2)N1CC1CCCO1 (stereo not drawn) [D074-0013]
Insect deaths (mortality rate) [6]: below 10%
mortality rate ([2]; 14 days post-administration, highest dose): below 50%
LC50 [2, 10]: > 1000 µg/mL
mortality ([2]; end of day 7, 1000 ppm): 27%
Insect deaths (mortality rate) [7]: below 10%
head capsule width [4]: small compared to other molecules
total body length [4]: small compared to other molecules
Larva Length, Mean Difference (I-J) versus Control [4]: -4,445* mm
EC50 [5]: 1.42 µM

O=C1c2n[nH]c(-c3ccccc3O)c2C(c2cccc(OCc3ccccc3)c2)N1CC1CCCO1 (stereo not drawn) [D074-0034]
Insect deaths (mortality rate) [6]: below 10%
LC50 [2, 11]: 443 µg/mL (≈ 920 µM)
LC50 [2, 10]: 444 µg/mL (≈ 921 µM)
Insect deaths (mortality rate) [7]: below 10%
Larva Length, Mean Difference (I-J) versus Control [4]: -7,845* mm
head capsule width, Mean Difference (I-J) versus Control [4]: -1,000* mm
EC50 [5]: 4.7 µM

O=C(NC(=O)c1c(F)cccc1F)Nc1ccc(Cl)cc1 [Diflubenzuron, diflubenzuron, reference compound]
LC50 at 3 days ([8]; L. decemlineata larvae, positive control, 3rd day mortality): 38.5 µg/mL (≈ 124 µM)
LC50 at 3 days ([8]; potato beetle larvae, after 3 days of application): 38 µg/mL (≈ 122 µM)

O=C(C[C@@H]1NC(=O)c2ccccc2NC1=O)NCCn1c(=O)c(O)nc2ccccc21 [J100-0311]
Insect deaths (mortality rate) [6]: below 10%
LC50 [2, 11]: 411 µg/mL (≈ 975 µM)
LC50 [2, 10]: 412 µg/mL (≈ 977 µM)
LC90 (95% CI) [2, 9]: 6740.368 (2743.061–6.275 × 10^4) mg/L
Insect deaths (mortality rate) [7]: below 10%
Larva Length, Mean Difference (I-J) versus Control [4]: -8,015* mm
head capsule width, Mean Difference (I-J) versus Control [4]: -1,075* mm
EC50 [5]: 5.66 µM

COc1ccc([C@H](CC(=O)NCc2ccncc2)c2cn(Cc3ccc(C)cc3)c3ccccc23)cc1OCc1ccccc1 [V029-3547]
Insect deaths (mortality rate) [6]: below 10%
Mean mortality ([2]; 14 days post-administration): 83.7%
LC50 [2, 11]: 406 µg/mL (≈ 682 µM)
LC50 [2, 10]: 406 µg/mL (≈ 682 µM)
mortality ([2]; after 3 days, >500 ppm): > 63.3%
LC90 (95% CI) [2, 9]: 900.815 (696.503–1634.450) mg/L
Insect deaths (mortality rate) [7]: below 10%
ability to downregulate cAMP (RLU) [3]: greatest ability to modulate cAMP
Larva Length, Mean Difference (I-J) versus Control [4]: -8,705* mm
head capsule width, Mean Difference (I-J) versus Control [4]: -1,120* mm
EC50 [5]: 8.17 µM
